Measured values reported in US20020035131A1, “Regimen and kit for amelioration of premature ejaculation” (Pentech Pharmaceuticals, Inc., priority 1999, published 2002).

Legend:
Assay type in all cases: in vivo, human
[1] = system: normally potent male patients suffering from premature ejaculation; test: Example 2 Study Group 1: single blind cross-over, continual maintenance paroxetine vs placebo (ELT, coitus frequency)
Source text: All patients in the study group were heterosexual, had no other sexual disorders and were either married or in a stable relationship. Patients with erectile dysfunction, reduced sexual desire, inhibited male orgasm, chronic depressive, psychiatric or physical illness, alcohol or substance abuse and the use of psychotropic and anti-depressant medication were excluded from the trial. Study Group 1 was comprised of 26 patients who were randomized into two treatment groups, Group A and Group B. […] Group B received placebo similarly administered about 3-4 hours before sexual intercourse. Patients were reviewed every two weeks. Cross-over was then conducted in both groups after four weeks of treatment, following an intervening three week drug free “washout” period, for a further four weeks of treatment. None of the patients received any formal psychosexual counseling. Patients were supplied with a diary and were asked to record their frequency of coitus, quality of erection and orgasm. Patients were asked to measure their ELT using a stopwatch. Pre-treatment mean ELT was measured over a three week baseline period during which patients were asked to have sexual intercourse at least three times. Pre-treatment frequency of coitus was the mean number of attempts in the previous three months. Patients were asked not to use condoms or topical penile anaesthetic creams or sprays. The frequency data of coitus and ejaculatory latency time (ELT) during the paroxetine and placebo treatment phases were statistically compared (Student's t-test).

[2] = system: normally potent male patients suffering from premature ejaculation; test: Example 2 Study Group 2: single blind cross-over, daily paroxetine then continual maintenance vs placebo (ELT, coitus frequency)
[3] = system: healthy men with a diagnosis of premature ejaculation (PE); test: Example 3: double-blind, randomized, placebo-controlled three-way crossover safety and efficacy study, 20 and 30 mg capsules; settings: for Mean Time in minutes, Reported By Partner / Time in minutes (Range), Reported By Partner / Mean Time in minutes, Reported By Patient / Time in minutes (Range), Reported By Patient / Mean % Change from Baseline, Reported By Partner / Mean % Change from Baseline, Reported By Patient: 6-week treatment period, preliminary data; for Mean Time in minutes, Reported By Partner / Time in minutes (Range), Reported By Partner / Mean Time in minutes, Reported By Patient / Time in minutes (Range), Reported By Patient: male baseline latency ≦ 2 minutes; for Reason for Early Termination: AE (Adverse Experience), patients: crossover of placebo, 20 and 30 mg capsules, not attributed to one treatment
Description: A double-blind, randomized, placebo-controlled, three-way crossover safety and efficacy study was conducted at four clinical sites, A-D. […] The study consisted of a screening period, a baseline period, and three treatment periods, separated by two washout periods. Patients who completed the study participated for about twenty-five weeks. […] Patients who met the selection criteria provided a medical history and submitted to psychosexual and physical examinations at screening. The efficacy of the paroxetine capsules was assessed at each visit by questionnaire. Safety was assessed by physical examinations and adverse experience (AE) reports, if any, were collected throughout the course of the study. A post-treatment physical assessment was performed at the final visit. Qualified patients who were admitted to the study were assigned an identification number in sequential order by enrollment. […] There were about twenty-three patients per sequence. […] Life long history of PE and/or history of PE within the last six months having ≦one minute ejaculation and a perception of lack of control. […] Identically matching placebo capsules were also supplied. Blinding, packaging and labeling was such that each strength of paroxetine capsule and placebo capsule was indistinguishable from one another on the basis of size, appearance, shape, weight, taste, odor finish, and dissolution characteristics. […] A three-week washout (no treatment) period took place between the end of Treatment Period 1 and the start of Treatment Period 2, and between the end of Treatment Period 2 and the start of Treatment Period 3. The following methodology for the study was employed.

[4] = system: normally potent male patients suffering from premature ejaculation; test: Example 2: incidence of adverse effects
[5] = Study Group 1-A, week 1: continual maintenance paroxetine 20 mg 3-4 hours before intercourse
[6] = Study Group 1-A, week 2: continual maintenance paroxetine 20 mg 3-4 hours before intercourse
[7] = Study Group 1-A, week 3: continual maintenance paroxetine 20 mg 3-4 hours before intercourse
[8] = Study Group 1-A, week 4: continual maintenance paroxetine 20 mg 3-4 hours before intercourse
[9] = Study Group 1-B, week 8: first week of continual maintenance paroxetine 20 mg after placebo and washout
[10] = Study Group 1-B, week 9: second week of continual maintenance paroxetine 20 mg after placebo and washout
[11] = Study Group 1-B, week 10: third week of continual maintenance paroxetine 20 mg after placebo and washout
[12] = Study Group 1-B, week 11: fourth week of continual maintenance paroxetine 20 mg after placebo and washout
[13] = Study Group 2-C, week 1: paroxetine 10 mg daily
[14] = Study Group 2-C, week 2: paroxetine 10 mg daily
[15] = Study Group 2-C, week 3: paroxetine 10 mg daily
[16] = Study Group 2-C, week 4: paroxetine 20 mg continual maintenance after three weeks 10 mg daily
[17] = Study Group 2-C, week 5: paroxetine 20 mg continual maintenance after three weeks 10 mg daily
[18] = Study Group 2-C, week 6: paroxetine 20 mg continual maintenance after three weeks 10 mg daily
[19] = Study Group 2-C, week 7: paroxetine 20 mg continual maintenance after three weeks 10 mg daily
[20] = Study Group 2-D, week 11: paroxetine 10 mg daily, first week after placebo phases and washout
[21] = Study Group 2-D, week 12: paroxetine 10 mg daily, second week after placebo phases and washout
[22] = Study Group 2-D, week 13: paroxetine 10 mg daily, third week after placebo phases and washout
[23] = Study Group 2-D, week 14: paroxetine 20 mg continual maintenance after three weeks 10 mg daily
[24] = Study Group 2-D, week 15: paroxetine 20 mg continual maintenance after three weeks 10 mg daily
[25] = Study Group 2-D, week 16: paroxetine 20 mg continual maintenance after three weeks 10 mg daily
[26] = Study Group 2-D, week 17: paroxetine 20 mg continual maintenance after three weeks 10 mg daily
[27] = Study Group 2, Daily Paroxetine (10 mg)
[28] = Study Group 2, Daily Paroxetine (10 mg), 42 patients
[29] = Study Group 2, Daily Paroxetine (10 mg), 42 patients, listed as Paroxetine

Which “Coitus Frequency/wk” value [1, 5] does the source give for `Fc1ccc([C@@H]2CCNC[C@H]2COc2ccc3c(c2)OCO3)cc1` (relative stereo) [paroxetine, trans-(−)-3-(1,3-benzodioxol-5-yloxy)methyl-4-(4-fluorophenyl) piperidine] here?
The value was 1.1 /wk.

And the “Ejaculatory Latency Time” value [1, 5]?
Its value is 1.0 min.

And the “Coitus Frequency/wk” value [1, 6]?
The value was 1.4 /wk.

And the “Ejaculatory Latency Time” value [1, 6]?
The value was 3.0 min.

What about the “Coitus Frequency/wk” value [1, 7] of the same molecule?
The value was 2.3 /wk.

And the “Ejaculatory Latency Time” value [1, 7]?
The value was 2.9 min.

What about the “Coitus Frequency/wk” value [1, 8] of the same molecule?
Its value is 3.2 /wk.

What about the “Ejaculatory Latency Time” value [1, 8] of the same molecule?
Its value is 3.2 min.

What about the “Coitus Frequency/wk” value [1, 9] of the same molecule?
Its value is 0.6 /wk.

What about the “Ejaculatory Latency Time” value [1, 9] of the same molecule?
The value was 1.3 min.

And the “Coitus Frequency/wk” value [1, 10]?
Its value is 1.9 /wk.

What about the “Ejaculatory Latency Time” value [1, 10] of the same molecule?
Its value is 2.8 min.

What about the “Coitus Frequency/wk” value [1, 11] of the same molecule?
Its value is 3.5 /wk.

What about the “Ejaculatory Latency Time” value [1, 11] of the same molecule?
The value was 3.5 min.

And the “Coitus Frequency/wk” value [1, 12]?
Its value is 3.1 /wk.

And the “Ejaculatory Latency Time” value [1, 12]?
The value was 3.5 min.

And the “time to prolongation of the ejaculatory interval (ELT)” value ([1]; Study Group 1: continual maintenance paroxetine)?
Its value is 1-2 weeks.

What about the “patients achieving intra-vaginal ejaculation for the first time” value ([1]; Study Group 1, patients who had never previously achieved it, after two weeks of treatment) of the same molecule?
Its value is “one of three”.

And the “Coitus Frequency/wk” value [2, 13]?
Its value is 1.7 /wk.

What about the “Ejaculatory Latency Time” value [2, 13] of the same molecule?
Its value is 1.2 min.

What about the “Coitus Frequency/wk” value [2, 14] of the same molecule?
Its value is 1.9 /wk.

And the “Ejaculatory Latency Time” value [2, 14]?
The value was 1.8 min.

And the “Coitus Frequency/wk” value [2, 15]?
The value was 2.7 /wk.

And the “Ejaculatory Latency Time” value [2, 15]?
The value was 4.3 min.

And the “Coitus Frequency/wk” value [2, 16]?
Its value is 2.3 /wk.

What about the “Ejaculatory Latency Time” value [2, 16] of the same molecule?
Its value is 4.5 min.

What about the “Coitus Frequency/wk” value [2, 17] of the same molecule?
Its value is 2.0 /wk.

And the “Ejaculatory Latency Time” value [2, 17]?
Its value is 5.2 min.

And the “Coitus Frequency/wk” value [2, 18]?
The value was 2.9 /wk.

And the “Ejaculatory Latency Time” value [2, 18]?
Its value is 4.7 min.

What about the “Coitus Frequency/wk” value [2, 19] of the same molecule?
The value was 2.4 /wk.

And the “Ejaculatory Latency Time” value [2, 19]?
The value was 5.8 min.

And the “Coitus Frequency/wk” value [2, 20]?
Its value is 2.0 /wk.

And the “Ejaculatory Latency Time” value [2, 20]?
Its value is 2.2 min.

And the “Coitus Frequency/wk” value [2, 21]?
Its value is 2.2 /wk.

What about the “Ejaculatory Latency Time” value [2, 21] of the same molecule?
The value was 3.5 min.

And the “Coitus Frequency/wk” value [2, 22]?
The value was 3.1 /wk.

And the “Ejaculatory Latency Time” value [2, 22]?
Its value is 3.3 min.

What about the “Coitus Frequency/wk” value [2, 23] of the same molecule?
The value was 3.0 /wk.

What about the “Ejaculatory Latency Time” value [2, 23] of the same molecule?
Its value is 4.2 min.

What about the “Coitus Frequency/wk” value [2, 24] of the same molecule?
The value was 2.6 /wk.

What about the “Ejaculatory Latency Time” value [2, 24] of the same molecule?
Its value is 3.9 min.

And the “Coitus Frequency/wk” value [2, 25]?
Its value is 2.5 /wk.

What about the “Ejaculatory Latency Time” value [2, 25] of the same molecule?
The value was 4.6 min.

What about the “Coitus Frequency/wk” value [2, 26] of the same molecule?
The value was 2.7 /wk.

What about the “Ejaculatory Latency Time” value [2, 26] of the same molecule?
Its value is 6.1 min.

What about the “patients achieving intra-vaginal ejaculation for the first time” value ([2]; Study Group 2, patients who had never previously achieved it, after two weeks of treatment) of the same molecule?
The value was “all of the five”.

What about the “Mean Time in minutes, Reported By Partner” value ([3]; 20 mg capsule daily, n = 26) of the same molecule?
The value was 6.5 min.

What about the “Time in minutes (Range), Reported By Partner” value ([3]; 20 mg capsule daily, n = 26) of the same molecule?
Its value is “(0.4-20) minutes”.

And the “Mean Time in minutes, Reported By Patient” value ([3]; 20 mg capsule daily, n = 28)?
Its value is 6.2 min.

What about the “Time in minutes (Range), Reported By Patient” value ([3]; 20 mg capsule daily, n = 28) of the same molecule?
The value was “(0.5-20) minutes”.

What about the “Mean % Change from Baseline, Reported By Partner” value ([3]; 20 mg capsule daily) of the same molecule?
The value was 225%.

What about the “Mean % Change from Baseline, Reported By Patient” value ([3]; 20 mg capsule daily) of the same molecule?
The value was 464%.

And the “Mean Time in minutes, Reported By Partner” value ([3]; 30 mg capsule daily, n = 25)?
Its value is 6.8 min.

What about the “Time in minutes (Range), Reported By Partner” value ([3]; 30 mg capsule daily, n = 25) of the same molecule?
The value was “(0.3-30) minutes”.

What about the “Mean Time in minutes, Reported By Patient” value ([3]; 30 mg capsule daily, n = 27) of the same molecule?
The value was 7 min.

What about the “Time in minutes (Range), Reported By Patient” value ([3]; 30 mg capsule daily, n = 27) of the same molecule?
The value was “(0.25-45) minutes”.

What about the “Mean % Change from Baseline, Reported By Partner” value ([3]; 30 mg capsule daily) of the same molecule?
Its value is 240%.

And the “Mean % Change from Baseline, Reported By Patient” value ([3]; 30 mg capsule daily)?
Its value is 536%.

And the “Reason for Early Termination: AE (Adverse Experience), patients” value (“Reason for Early Termination: AE” for short) ([3]; Clinical Site A, 10 enrolled)?
Its value is 0.

What about the “Reason for Early Termination: AE” value ([3]; Clinical Site B, 9 enrolled) of the same molecule?
The value was 0.

What about the “Reason for Early Termination: AE” value ([3]; Clinical Site C, 15 enrolled) of the same molecule?
Its value is 2.

And the “Reason for Early Termination: AE” value ([3]; Clinical Site D, 19 enrolled)?
The value was 3.

And the “Reason for Early Termination: AE” value ([3]; TOTALS of sites A-D, 53 enrolled)?
Its value is 5.

And the “patients reporting any adverse effects” value ([4]; Study Group 1, continual maintenance use of paroxetine (20 mg))?
Its value is “None”.

What about the “Adverse effects: Total Patients (fraction)” value [4, 27] of the same molecule?
The value was 7/42.

What about the “Adverse effects: Total Patients (percent)” value [4, 27] of the same molecule?
The value was 17%.

What about the “Adverse effect: Anejaculation (patients)” value [4, 28] of the same molecule?
Its value is “Three”.

And the “Adverse effect: Anorexia (patients)” value [4, 28]?
The value was 1.

And the “Adverse effect: Gastrointestinal upset (patients)” value [4, 28]?
Its value is 3.

What about the “Adverse effect: Reduced Libido (patients)” value [4, 28] of the same molecule?
The value was “Two”.

What about the “Adverse effect: Anejaculation (patients)” value [4, 29] of the same molecule?
Its value is 3.

And the “Adverse effect: Reduced Libido (patients)” value [4, 29]?
The value was 2.

And the “return of ejaculation after withdrawal of the drug” value ([4]; Study Group 2, patients with anejaculation on daily paroxetine)?
The value was 2 to 10 days.
